Laboratory results published in patent publication US20070123556A1, “Treatment with Sigma Receptor Agonists Post-Stroke” (UNIVERSITY OF SOUTH FLORIDA, priority 2005, published 2007).
Read-outs that look alike come from different tables or passages of the source.

Key:
[1] = test system: cultured cortical neurons; experiment: spontaneous Ca2+ transients, fura-2 [Ca2+]i; type: cell-based, rat; details: 100 μM
ASIC channels = experiment: low-pH (pH 6.0) evoked ASIC-mediated increases in [Ca2+]i; type: cell-based, rat; details: 100 μM, pH 6.0
rats subjected to MCAO [2] = experiment: NeuN immunostaining, viable neurons after MCAO; type: in vivo, rat; details: 15 mg/kg
Description: MCAO surgery was performed as previously reported by Vendrame et al (Vendrame et al., 2004) and originally described by Longa et al (Longa et al., 1989). Laser Doppler Radar (LDR) was used to monitor decrease in blood perfusion which indicates successful occlusion (Moor Instruments Ltd, Devon, England). A 2 mm diameter hole was drilled into the right parietal bone (1 mm posterior and 4 mm lateral from bregma), and a guide screw was set. The LDR probe (MP10M200ST; Moor) was inserted into the guide screw, and the tip of the probe was placed against the pial surface of the brain. […] For MCAO, the embolus (4 cm long, 6 lb test monofilament) was advanced up the internal carotid artery into the middle cerebral artery and tied off at the internal/external carotid junction to produce permanent occlusion. The rat was then sutured, given a 1 ml subcutaneous injection of saline, and allowed to wake in a fresh cage. […]
[…]. […] The area of the contralateral side of the brain tissue was measured and used to compensate for possible edema in ipsilateral hemispheres. NeuN immunostaining was analyzed using the NIH Image J software to count NeuN positive cells by particle analysis in the ipsilateral hemispheres of the corticalustriatal and corticaluhippocampal regions of the rat brains at a magnification of 10×.

rats subjected to MCAO [3] = test system: rats subjected to MCAO
glutamate receptors = details: 100 μM; cited from earlier work

Cc1ccccc1NC(=N)Nc1ccccc1C [DTG, 1,3-di-o-tolyguanidine]
effect on spontaneous increases in [Ca2+]i (number of events) [1]: reversibly block | effect on low-pH evoked transient increases in [Ca2+]i (ASIC channels): inhibits | increase of surviving NeuN cells in the infarct zone relative to MCAO-only animals (rats subjected to MCAO [2]; 24 hr post stroke): > 83% | number of viable neurons (NeuN) in ipsilateral infarct zones (rats subjected to MCAO [2]; cortical/striatal and cortical/hippocampal, p<0.001): significantly increased | survival rate 96 hours post MCAO (rats subjected to MCAO [3]; 15 mg/kg daily s.c. at 24, 48, 72 h post MCAO): over 70% | survival rate 96 hours post MCAO (rats subjected to MCAO [3]; 30 mg/kg daily s.c. at 24, 48, 72 h post MCAO): under 40% | deaths in sham animals following DTG application (rats subjected to MCAO [3]; sham control, 15 mg/kg DTG): none | inhibition of calcium elevations evoked by glutamate application (glutamate receptors): not
